Target: T1, PPARδ (Homo sapiens, UniProt Q03181)
T1 construct: pFA-CMV-hPPARδ-LBD; expressed in transfected cells; host or cells: HEK293T
T1 sequence (Q03181 211-439 limits assumed): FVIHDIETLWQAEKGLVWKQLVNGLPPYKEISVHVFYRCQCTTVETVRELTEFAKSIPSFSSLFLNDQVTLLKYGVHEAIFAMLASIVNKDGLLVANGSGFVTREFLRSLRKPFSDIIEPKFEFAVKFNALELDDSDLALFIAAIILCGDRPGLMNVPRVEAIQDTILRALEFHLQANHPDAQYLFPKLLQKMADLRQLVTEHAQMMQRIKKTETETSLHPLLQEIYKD
Experiment: Gal4-hybrid reporter gene assay PPARδ in HEK293T cells
Format: cell-based
Details: 10 μM
Text: Hybrid reporter gene assays for PPARα/γ/δ, LXRα/β, RXRα/β/γ, RARα/β/γ, VDR and PXR Plasmids: The Gal4-fusion receptor plasmids pFA-CMV-hPPARα-LBD^52, pFA-CMV-hPPARγ-LBD^52, pFA-CMV-hPPARδ-LBD^52, pFA-CMV-hLXRα-LBD^32 and pFA-CMV-hLXRβ-LBD^32 have been reported previously. […] Frame and sequence of all fusion receptors were verified by sequencing. pFR-Luc (Stratagene) was used as reporter plasmid and pRL-SV40 (Promega) for normalization of transfection efficiency and cell growth.
Assay procedure: HEK293T cells were grown in DMEM high glucose, supplemented with 10% FCS, sodium pyruvate (1 mM), penicillin (100 U/mL) and streptomycin (100 μg/mL) at 37° C. and 5% CO2. The day before transfection, HEK293T cells were seeded in 96-well plates (2.5·10^4 cells/well). Before transfection, medium was changed to Opti-MEM without supplements. Transient transfection was carried out using Lipofectamine LTX reagent (Invitrogen) according to the manufacturer's protocol with pFR-Luc (Stratagene), pRL-SV40 (Promega) and pFA-CMV-hRXRα-LBD. 5 h after transfection, medium was changed to Opti-MEM supplemented with penicillin (100 U/mL), streptomycin (100 μg/mL), now additionally containing 0.1% DMSO and the respective test compound or 0.1% DMSO alone as untreated control. […] Luminescence was measured with an Infinite M200 luminometer (Tecan Deutschland GmbH). […]

SMILES: CC(C)(C)c1ccc(C(=O)NCc2ccc(NS(C)(=O)=O)cc2Cl)cc1 [compound 57, 4-(tert-Butyl)-N-(2-chloro-4-(methylsulfonamido)benzyl)benzamide]
- activity on PPARδ: inactive

Reference: US20200172473A1, “DUAL MODULATORS OF FARNESOID X RECEPTOR AND SOLUBLE EPOXIDE HYDROLASE” (JOHANN WOLFGANG GOETHE-UNIVERSITÄT FRANKFURT AM MAIN, priority 2017, published 2020)
